Measured values taken from ChEMBL document CHEMBL1944583, “Synthesis and evaluation of hexahydropyrrolo[3,4-d]isoxazole-4,6-diones as anti-stress agents” (Eur J Med Chem, 2012).
The source made the active and inactive calls. No cut-off for these calls is given here.

What was measured:
Mus musculus [1] = assay: Antistress activity in Swiss albino mouse assessed as […] immobilization stress-induced decrease in non-social behavior at 2 mg/kg, ip administered 60 mins before stress induction measured after 10 mins by open field test; type: functional, organism-based; parameters: dose 2 mg/kg
Mus musculus [2] = assay: Antistress activity in Swiss albino mouse assessed as reversal of immobilization stress-induced decrease in frequency of rearing at 2 mg/kg, ip administered 60 mins before stress induction measured after 10 mins by open field test; type: functional, organism-based; parameters: dose 2 mg/kg
Mus musculus [3] = assay: Antistress activity in Swiss albino mouse assessed as reversal of immobilization stress-induced decrease in number of line crossing at 2 mg/kg, ip administered 60 mins before stress induction measured after 10 mins by open field test; type: functional, organism-based; parameters: dose 2 mg/kg
Mus musculus [4] = assay: Antistress activity in Swiss albino mouse assessed as reversal of immobilization stress-induced decrease in rearing at 2 mg/kg, ip administered 60 mins before stress induction measured after 10 mins by hole board test; type: functional, organism-based; parameters: dose 2 mg/kg
Mus musculus [5] = assay: Antistress activity in Swiss albino mouse assessed as reversal of immobilization stress-induced decrease in locomotor activity at 2 mg/kg, ip administered 60 mins before stress induction measured every 5 mins by actophotometer test; type: functional, organism-based; parameters: dose 2 mg/kg
Mus musculus [6] = assay: Antistress activity in Swiss albino mouse assessed as reversal of immobilization stress-induced decrease in frequency of head dip at 2 mg/kg, ip administered 60 mins before stress induction measured after 10 mins by hole board test; type: functional, organism-based; parameters: dose 2 mg/kg
Mus musculus [7] = assay: Antistress activity in Swiss albino mouse assessed as reversal of immobilization stress-induced decrease in frequency of rearing at 5 mg/kg, ip administered 60 mins before stress induction measured after 10 mins by open field test; type: functional, organism-based; parameters: dose 5 mg/kg
Mus musculus [8] = assay: Antistress activity in Swiss albino mouse assessed as reversal of immobilization stress-induced decrease in frequency of head dip at 5 mg/kg, ip administered 60 mins before stress induction measured after 10 mins by hole board test; type: functional, organism-based; parameters: dose 5 mg/kg
Mus musculus [9] = assay: Antistress activity in Swiss albino mouse assessed as reversal of immobilization stress-induced decrease in rearing at 5 mg/kg, ip administered 60 mins before stress induction measured after 10 mins by hole board test; type: functional, organism-based; parameters: dose 5 mg/kg
Mus musculus [10] = assay: Antistress activity in Swiss albino mouse assessed as reversal of immobilization stress-induced decrease in frequency of rearing at 10 mg/kg, ip administered 60 mins before stress induction measured after 10 mins by open field test; type: functional, organism-based; parameters: dose 10 mg/kg
[11] = Half life in Swiss albino mouse; type: ADME, organism-based; conditions: in vivo
Mus musculus [12] = assay: Antistress activity in Swiss albino mouse assessed as reversal of immobilization stress-induced decrease in number of line crossing at 10 mg/kg, ip administered 60 mins before stress induction measured after 10 mins by open field test; type: functional, organism-based; parameters: dose 10 mg/kg
Mus musculus [13] = assay: Toxicity in Swiss albino mouse assessed as increase in frequency of rearing at 10 mg/kg, ip; type: organism-based; parameters: dose 10 mg/kg, route intraperitoneal; conditions: in vivo
Mus musculus [14] = assay: Antistress activity in Swiss albino mouse assessed as reversal of immobilization stress-induced decrease in locomotor activity at 5 mg/kg, ip administered 60 mins before stress induction measured every 5 mins by actophotometer test; type: functional, organism-based; parameters: dose 5 mg/kg
Mus musculus [15] = assay: Antistress activity in Swiss albino mouse assessed as reversal of immobilization stress-induced decrease in locomotor activity at 10 mg/kg, ip administered 60 mins before stress induction measured every 5 mins by actophotometer test; type: functional, organism-based; parameters: dose 10 mg/kg
Mus musculus [16] = assay: Antistress activity in Swiss albino mouse assessed as reversal of immobilization stress-induced decrease in non-social behavior at 5 mg/kg, ip administered 60 mins before stress induction measured after 10 mins by open field test; type: functional, organism-based; parameters: dose 5 mg/kg
Mus musculus [17] = assay: Antistress activity in Swiss albino mouse assessed as reversal of immobilization stress-induced decrease in number of line crossing at 5 mg/kg, ip administered 60 mins before stress induction measured after 10 mins by open field test; type: functional, organism-based; parameters: dose 5 mg/kg
Mus musculus [18] = assay: Antistress activity in Swiss albino mouse assessed as reversal of immobilization stress-induced decrease in rearing at 10 mg/kg, ip administered 60 mins before stress induction measured after 10 mins by hole board test; type: functional, organism-based; parameters: dose 10 mg/kg
Mus musculus [19] = assay: Antistress activity in Swiss albino mouse assessed as reversal of immobilization stress-induced decrease in frequency of head dip at 10 mg/kg, ip administered 60 mins before stress induction measured after 10 mins by hole board test; type: functional, organism-based; parameters: dose 10 mg/kg
Mus musculus [20] = assay: Antistress activity in Swiss albino mouse assessed as reversal of immobilization stress-induced decrease in non-social behavior at 10 mg/kg, ip administered 60 mins before stress induction measured after 10 mins by open field test; type: functional, organism-based; parameters: dose 10 mg/kg
Mus musculus [21] = assay: Toxicity in Swiss albino mouse assessed as increase in frequency of head dips at 10 mg/kg, ip; type: organism-based; parameters: dose 10 mg/kg, route intraperitoneal; conditions: in vivo

Row | SMILES | Activity (Mus musculus [1]) | Activity (Mus musculus [2]) | Activity (Mus musculus [3]) | Activity (Mus musculus [4]) | Activity (Mus musculus [5]) | Activity (Mus musculus [6]) | Activity (Mus musculus [7]) | Activity (Mus musculus [10]) | Activity (Mus musculus [12]) | Activity (Mus musculus [13]) | Activity (Mus musculus [14]) | Activity (Mus musculus [15]) | Activity (Mus musculus [16]) | Activity (Mus musculus [17]) | Activity (Mus musculus [20]) | Activity (Mus musculus [21]) | other results
1 | CN1C(=O)CN=C(c2ccccc2)c2cc(Cl)ccc21 | Active | Active | Active | Active | Active | Active | – | – | – | – | – | – | – | – | – | – | –
2 | O=C1[C@H]2[C@@H](c3ccccc3)N(c3ccccc3)O[C@H]2C(=O)N1c1cccc2ccccc12 (relative stereo) | – | – | – | inactive | – | inactive | Active | Active | Active | Non-toxic | Active | Active | Active | Active | Active | Non-toxic | Activity (Mus musculus [8]): Active; Activity (Mus musculus [9]): Active; half-life [11]: 3 h; Activity (Mus musculus [18]): Active; Activity (Mus musculus [19]): Active
3 | O=C1[C@@H]2[C@@H](ON(c3ccccc3)[C@H]2c2ccccc2)C(=O)N1c1cccc2ccccc12 (relative stereo) | inactive | inactive | inactive | – | inactive | – | inactive | Active | Active | Non-toxic | inactive | Active | inactive | inactive | Active | Non-toxic | –
